Measured values from US10104891B2 (priority 2014, dated 2018).

Legend:
Assay type in all cases: in vivo
[1] = tested on: Phytophthora infestans; test: whole plant or invertebrate; details: Phytophthora infestans, in Solanum lycopersicum, 96 h, read-out: control value (Test 1)
[2] = tested on: Pseudoperonospora cubensis; test: Test 2: control effect against cucumber downy mildew; details: Pseudoperonospora cubensis, 120 h, control value vs untreated section
Outline: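 Protective test: zoospores (1.0×10^4 units/ml) misted one day after applying a 4 ppm suspension (wettable powder diluted in 1/5000 Tween20) to 2-leaf cucumber, Sagami hanjiro. After 16 hr at 22° C humid incubation, leaf lesion area read at day 5, expressed as control value versus untreated leaves.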

[3] = tested on: Plasmopara viticola; test: Test 3: control effect against grape downy mildew; details: Plasmopara viticola, 120 h, control value vs untreated section
Outline: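 Leaf lesion area, scored 5 days after inoculation and compared with untreated plants, gives the control value. Inoculation used P. viticola zoospores (1.0×10^4 units/ml) with a 16 hr moist incubation at 22° C. It followed by one day a spray of 4 ppm compound (wettable powder in Tween20) onto Neomuscat seedlings.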

[4] = tested on: Pythium graminicola; test: Test 4: control effect against rice damping-off by the Pythium fungus (soil lavage); details: 1,000 ppm, 2.5 ml test suspension drenched on contaminated soil, rice (koshihikari)
Protocol: A 10% wettable powder created according to the Pharmaceutical Formulation Example 1 was diluted with a Tween20 solution prepared to a concentration of 1/5000, then the compound of formula [1] was prepared to a concentration of 4 ppm. Further, the compound of formula [1] in Test 4 was adjusted to a concentration of 1,000 ppm.
<Test 4 Test of Control Effect Against Rice Damping-Off by the Pythium Fungus (Soil Lavage)>
Distilled water was added to the flora of Pythium graminicola cultured in bentoglass seed culture and stirred with a mixer, and adjusted the contaminated soil to 5 g of bacteria against 1 kg of soil.
In a cell tray having 31×31 mm^2 per cell, 20 ml of the contaminated soil was filled in each cell, and 3 seeds of rice chaff that has been forced to sprout (Species: koshihikari) were seeded, and 5 ml of soil was added for covering, then 2.5 ml of test suspension was drenched, and the seeds were incubated in a moist chamber adjusted to 28° C. for 72 hr to induce sprouting. Then, in a low temperature room of 5° C., the onset of disease was induced for 2 days, then the disease was nurtured for 14 days in a room of 25° C.
The soil was washed, and the apoptosis strain, growth restrained strain, and a healthy strain were measured and the onset rate was calculated by the following formula. Onset rate=[Σ(onset strain number by level×onset index)/(investigated strain×3)]×100 [Onset Index]
1: Growth restrained strain
Also, the following formula was used to compute the control value from the obtained onset index. control value={1−onset area rate at the section applied the test agent/onset area rate of untreated section}×100 Computational formula of the control value: […]

Cc1cc(C(F)(F)F)nn1CC(=O)N1CCC(c2nc(C3OCc4c(Br)ccc(Br)c4CO3)cs2)CC1 [Compound 1-100, 4-[4-(6,9-dibromo-1,5-dihydro-3H-2,4-benzodioxepin-3-yl)-2-thiazolyl]-1-[2-[5-methyl-3-(trifluoromethyl)-1H-pyrazole-1-yl]acetyl]piperidine]
pest or weed control at 4 µg/mL [1]: 100% | pest or weed control at 4 µg/mL [2]: 100% | pest or weed control at 4 µg/mL [3]: 100% | pest or weed control at 1000 ppm [4]: ≥ 90%

O=C(Cc1cc(Cl)ccc1Cl)N1CCC(c2nc(C3OCc4cccc(Cl)c4CO3)cs2)CC1 (stereo not drawn) [Compound 2-22, 4-[4-(6-chloro-1,5-dihydro-3H-2,4-benzodioxepin-3-yl)-2-thiazolyl]-1-[2-(2,5-dichlorophenyl)acetyl]piperidine]
pest or weed control at 4 µg/mL [1]: 100% | pest or weed control at 4 µg/mL [2]: 100% | pest or weed control at 4 µg/mL [3]: 100% | pest or weed control at 1000 ppm [4]: ≥ 90%

CCCS(=O)(=O)Oc1cccc2c1COC(c1csc(C3CCN(C(=O)Cn4nc(C(F)(F)F)cc4C)CC3)n1)OC2 (stereo not drawn) [Compound 1-22, 4-[4-(6-propylsulfonyloxy-1,5-dihydro-3H-2,4-benzodioxepin-3-yl)-2-thiazolyl]-1-[2-[5-methyl-3-(trifluoromethyl)-1H-pyrazole-1-yl]acetyl]piperidine]
pest or weed control at 4 µg/mL [1]: 100% | pest or weed control at 4 µg/mL [2]: 100% | pest or weed control at 4 µg/mL [3]: 100% | pest or weed control at 1000 ppm [4]: ≥ 90%

Cc1cc(C(F)(F)F)nn1CC(=O)N1CCC(c2nc(C3OCc4cccc(Cl)c4CO3)cs2)CC1 (stereo not drawn) [Compound 1-23, 4-[4-(6-chloro-1,5-dihydro-3H-2,4-benzodioxepin-3-yl)-2-thiazolyl]-1-[2-[5-methyl-3-(trifluoromethyl)-1H-pyrazole-1-yl]acetyl]piperidine]
pest or weed control at 4 µg/mL [1]: 100% | pest or weed control at 4 µg/mL [2]: 100% | pest or weed control at 4 µg/mL [3]: 100% | pest or weed control at 1000 ppm [4]: ≥ 90%

Cc1ccc(C)c(CC(=O)N2CCC(c3nc(C4OCc5cccc(OS(C)(=O)=O)c5CO4)cs3)CC2)c1 (stereo not drawn) [Compound 2-1, 4-[4-(6-methylsulfonyloxy-1,5-dihydro-3H-2,4-benzodioxepin-3-yl)-2-thiazolyl]-1-[2-(2,5-dimethylphenyl)acetyl]piperidine]
pest or weed control at 4 µg/mL [1]: 100% | pest or weed control at 4 µg/mL [2]: 100% | pest or weed control at 4 µg/mL [3]: 100% | pest or weed control at 1000 ppm [4]: ≥ 90%

O=C(Cc1cc(Cl)ccc1Cl)N1CCC(c2nc(C3OCc4cccc(Br)c4CO3)cs2)CC1 (stereo not drawn) [Compound 2-19, 4-[4-(6-bromo-1,5-dihydro-3H-2,4-benzodioxepin-3-yl)-2-thiazolyl]-1-[2-(2,5-dichlorophenyl)acetyl]piperidine]
pest or weed control at 4 µg/mL [1]: 100% | pest or weed control at 4 µg/mL [2]: 100% | pest or weed control at 4 µg/mL [3]: 100% | pest or weed control at 1000 ppm [4]: ≥ 90%

Cc1ccc(C)c(CC(=O)N2CCC(c3nc(C4OCc5ccccc5C(C)O4)cs3)CC2)c1 (stereo not drawn) [Compound 2-13, 4-[4-(1-methyl-1,5-dihydro-3H-2,4-benzodioxepin-3-yl)-2-thiazolyl]-1-[2-(2,5-dimethylphenyl)acetyl]piperidine]
pest or weed control at 4 µg/mL [1]: 50% | pest or weed control at 4 µg/mL [2]: 100% | pest or weed control at 4 µg/mL [3]: 100% | pest or weed control at 1000 ppm [4]: ≥ 90%

Cc1cc(C(F)(F)F)nn1CC(=O)N1CCC(c2nc(C3OCc4ccc(Cl)cc4CO3)cs2)CC1 (stereo not drawn) [Compound 1-40, 4-[4-(7-chloro-1,5-dihydro-3H-2,4-benzodioxepin-3-yl)-2-thiazolyl]-1-[2-[5-methyl-3-(trifluoromethyl)-1H-pyrazole-1-yl]acetyl]piperidine]
pest or weed control at 4 µg/mL [1]: 100% | pest or weed control at 4 µg/mL [2]: 100% | pest or weed control at 4 µg/mL [3]: 100% | pest or weed control at 1000 ppm [4]: ≥ 90%

Cc1ccc(C)c(CC(=S)N2CCC(c3nc(C4OCc5c(F)ccc(OS(C)(=O)=O)c5CO4)cs3)CC2)c1 (stereo not drawn) [Compound 2-57, 4-[4-(6-fluoro-9-methylsulfonyloxy-1,5-dihydro-3H-2,4-benzodioxepin-3-yl)-2-thiazolyl]-1-[2-(2,5-dimethylphenyl)thioacetyl]piperidine]
pest or weed control at 4 µg/mL [1]: 100% | pest or weed control at 4 µg/mL [2]: 100% | pest or weed control at 4 µg/mL [3]: 100% | pest or weed control at 1000 ppm [4]: ≥ 90%

COc1ccc(Br)c2c1COC(c1csc(C3CCN(C(=O)Cn4nc(C(F)F)cc4C(F)F)CC3)n1)OC2 (stereo not drawn) [Compound 1-57, 4-[4-(6-bromo-9-methoxy-1,5-dihydro-3H-2,4-benzodioxepin-3-yl)-2-thiazolyl]-1-[2-[3,5-bis(difluoromethyl)-1H-pyrazole-1-yl]acetyl]piperidine]
pest or weed control at 4 µg/mL [1]: 100% | pest or weed control at 4 µg/mL [2]: 100% | pest or weed control at 4 µg/mL [3]: 100% | pest or weed control at 1000 ppm [4]: ≥ 90%

CS(=O)(=O)Oc1cccc2c1COC(c1csc(C3CCN(C(=O)Cc4cc(Cl)ccc4Cl)CC3)n1)OC2 (stereo not drawn) [Compound 2-2, 4-[4-(6-methylsulfonyloxy-1,5-dihydro-3H-2,4-benzodioxepin-3-yl)-2-thiazolyl]-1-[2-(2,5-dichlorophenyl)acetyl]piperidine]
pest or weed control at 4 µg/mL [1]: 100% | pest or weed control at 4 µg/mL [2]: 100% | pest or weed control at 4 µg/mL [3]: 100% | pest or weed control at 1000 ppm [4]: ≥ 90%

O=C(Cn1nc(C(F)F)cc1C(F)F)N1CCC(c2nc(C3OCc4ccc([N+](=O)[O-])cc4CO3)cs2)CC1 (stereo not drawn) [Compound 1-49, 4-[4-(7-nitro-1,5-dihydro-3H-2,4-benzodioxepin-3-yl)-2-thiazolyl]-1-[2-[3,5-bis(difluoromethyl)-1H-pyrazole-1-yl]acetyl]piperidine]
pest or weed control at 4 µg/mL [1]: 100% | pest or weed control at 4 µg/mL [2]: 100% | pest or weed control at 4 µg/mL [3]: 100% | pest or weed control at 1000 ppm [4]: ≥ 90%

O=C(Cc1cc(Cl)ccc1Cl)N1CCC(c2nc(C3OCc4c(F)ccc(F)c4CO3)cs2)CC1 [Compound 2-4, 4-[4-(6,9-difluoro-1,5-dihydro-3H-2,4-benzodioxepin-3-yl)-2-thiazolyl]-1-[2-(2,5-dichlorophenyl)acetyl]piperidine]
pest or weed control at 4 µg/mL [1]: 100% | pest or weed control at 4 µg/mL [2]: 100% | pest or weed control at 4 µg/mL [3]: 100% | pest or weed control at 1000 ppm [4]: ≥ 90%

COc1ccc(F)c2c1COC(c1csc(C3CCN(C(=O)Cn4nc(C(F)(F)F)cc4C)CC3)n1)OC2 (stereo not drawn) [Compound 1-133, 4-[4-(6-fluoro-9-methoxy-1,5-dihydro-3H-2,4-benzodioxepin-3-yl)-2-thiazolyl]-1-[2-[5-methyl-3-(trifluoromethyl)-1H-pyrazole-1-yl]acetyl]piperidine]
pest or weed control at 4 µg/mL [1]: 100% | pest or weed control at 4 µg/mL [2]: 100% | pest or weed control at 4 µg/mL [3]: 100% | pest or weed control at 1000 ppm [4]: ≥ 90%

O=C(Cn1nc(C(F)(F)F)cc1C(F)(F)F)N1CCC(c2nc(C3OCc4ccc(F)cc4CO3)cs2)CC1 (stereo not drawn) [Compound 1-91, 4-[4-(7-fluoro-1,5-dihydro-3H-2,4-benzodioxepin-3-yl)-2-thiazolyl]-1-[2-[3,5-bis(trifluoromethyl)-1H-pyrazole-1-yl]acetyl]piperidine]
pest or weed control at 4 µg/mL [1]: 100% | pest or weed control at 4 µg/mL [2]: 100% | pest or weed control at 4 µg/mL [3]: 100% | pest or weed control at 1000 ppm [4]: ≥ 90%

COc1ccc(Cl)c2c1COC(c1csc(C3CCN(C(=O)Cc4cc(C)ccc4C)CC3)n1)OC2 (stereo not drawn) [Compound 2-20, 4-[4-(6-chloro-9-methoxy-1,5-dihydro-3H-2,4-benzodioxepin-3-yl)-2-thiazolyl]-1-[2-(2,5-dimethylphenyl)acetyl]piperidine]
pest or weed control at 4 µg/mL [1]: 100% | pest or weed control at 4 µg/mL [2]: 100% | pest or weed control at 4 µg/mL [3]: 100% | pest or weed control at 1000 ppm [4]: ≥ 90%

Cc1cc(C(F)(F)F)nn1CC(=O)N1CCC(c2nc(C3OCc4ccc(F)c(OS(C)(=O)=O)c4CO3)cs2)CC1 (stereo not drawn) [Compound 1-45, 4-[4-(7-fluoro-6-methylsulfonyloxy-1,5-dihydro-3H-2,4-benzodioxepin-3-yl)-2-thiazolyl]-1-[2-[5-methyl-3-(trifluoromethyl)-1H-pyrazole-1-yl]acetyl]piperidine]
pest or weed control at 4 µg/mL [1]: 100% | pest or weed control at 4 µg/mL [2]: 100% | pest or weed control at 4 µg/mL [3]: 100% | pest or weed control at 1000 ppm [4]: ≥ 90%

Cc1cc(C(F)(F)F)nn1CC(=O)N1CCC(c2nc(C3OCc4c(F)ccc(F)c4CO3)cs2)CC1 [Compound 1-3, 4-[4-(6,9-difluoro-1,5-dihydro-3H-2,4-benzodioxepin-3-yl)-2-thiazolyl]-1-[2-[5-methyl-3-(trifluoromethyl)-1H-pyrazole-1-yl]acetyl]piperidine]
pest or weed control at 4 µg/mL [1]: 100% | pest or weed control at 4 µg/mL [2]: 100% | pest or weed control at 4 µg/mL [3]: 100% | pest or weed control at 1000 ppm [4]: ≥ 90%
